Several values for one entry are separate records, joined by “and”; a condition that tells them apart may be missing. Identical values can stand only once.
Test system: GK rats
Test: GK rat chronic efficacy, compound in feed for 20 days
Assay type: in vivo
Settings: for effect on body weight / effect on food intake: GK rats; for % HBA1c / Liver Triglycerides: following 20 days of treatment in the GK rat
Method: At the start of the study, fed glucose was measured at 8 A.M., and animals were selected and sorted into treatment groups based on ambient glucose (n = 10/male GK group, n = 6/male WKY control group). […] Fed blood glucose, food intake, and body weights were determined on days 0, 1, 3, 7, and 14 of study at 8 A.M. On days 7 and 14, food was removed for 5 h and plasma glucose was measured. Percent inhibitions were calculated as the percent reduction of blood glucose from the average value for vehicle controls. On day 14, blood was collected from the tail vein (20 μl) after the morning glucose measurement and after 5 h fast from a subset of n = 3 rats per treatment group to determine the ambient and fasted exposure of the compounds in circulation. The blood was stored at 4°C in 0.1 M sodium monocitrate for subsequent analysis. Animals were then re-fed their respective diet treatments. On day 20 of treatment at 8 A.M., blood glucose was measured and then animals were euthanized via CO2 asphyxiation. Blood and liver tissue were sampled, processed, and stored at -80°C until analysis.
Plasma was analyzed for triglycerides, NEFA, and HbA1C using a P Modular Roche Clinical Chemistry analyzer. Liver triglycerides were extracted as described by Bligh and Dyer, and were measured using the Infinity triglyceride assay kit (Thermo Scientific, Rockford, IL). Plasma insulin levels were measured via EIA (Mesoscale Discovery ELISA Kit, Gaithersburg MD).

SMILES: O=C1NC(=O)C(C2CCOc3cc(Oc4ccc(C(F)(F)F)cc4Cl)ccc32)S1 (centres unmarked) [MK-2305]
- effect on body weight (10 mg/kg in feed): no significant effect
- effect on food intake (10 mg/kg in feed): no significant effect
- effect on food intake (30 mg/kg in feed, p < 0.05): reduction in food intake that persisted through day 14
- effect on body weight (30 mg/kg in feed, relative to vehicle controls): did not correspond to changes in body weight
- % HBA1c (10 mpk, individual animals): 4.3% and 4.6% and 4.2% and 4.4% and 4.5%
- Liver Triglycerides (10 mpk, individual animals): 19.1 mg/g tissue and 21.7 mg/g tissue and 24.5 mg/g tissue and 22.1 mg/g tissue and 24.7 mg/g tissue and 26.9 mg/g tissue and 25.8 mg/g tissue and 22.8 mg/g tissue
- Morning (fed) Blood Glucose (30 mpk in feed, Day 0 (start of study), individual GK rats): 189 mg/dL and 176 mg/dL and 238 mg/dL and 199 mg/dL and 183 mg/dL and 212 mg/dL and 192 mg/dL and 274 mg/dL and 228 mg/dL
- Morning (fed) Blood Glucose (30 mpk in feed, Day 1, individual GK rats): 147 mg/dL and 165 mg/dL and 223 mg/dL and 161 mg/dL and 155 mg/dL and 192 mg/dL and 153 mg/dL and 302 mg/dL and 159 mg/dL
- Morning (fed) Blood Glucose (30 mpk in feed, Day 3, individual GK rats): 139 mg/dL and 153 mg/dL and 156 mg/dL and 150 mg/dL and 169 mg/dL and 149 mg/dL and 154 mg/dL and 218 mg/dL and 134 mg/dL
- Morning (fed) Blood Glucose (30 mpk in feed, Day 7, individual GK rats): 139 mg/dL and 153 mg/dL and 126 mg/dL and 142 mg/dL and 151 mg/dL and 181 mg/dL and 197 mg/dL and 140 mg/dL
- Morning (fed) Blood Glucose (30 mpk in feed, Day 14, individual GK rats): 141 mg/dL and 143 mg/dL and 156 mg/dL and 133 mg/dL and 132 mg/dL and 146 mg/dL and 147 mg/dL
- Morning (fed) Blood Glucose (30 mpk in feed, Day 20, individual GK rats): 128 mg/dL and 137 mg/dL and 159 mg/dL and 133 mg/dL and 139 mg/dL and 122 mg/dL and 126 mg/dL and 115 mg/dL and 142 mg/dL
- % HBA1c (30 mpk, individual animals): 4.4% and 4.5% and 4.3%
- Liver Triglycerides (30 mpk, individual animals): 16.7 mg/g tissue and 23.9 mg/g tissue and 28.2 mg/g tissue and 27.1 mg/g tissue and 24.5 mg/g tissue and 23 mg/g tissue and 24.3 mg/g tissue
- Fasted blood glucose (Day 7, ~6 hrs after food removal, 30mpk, chronic study, individual animals, 30 mg/kg): 110 mg/dl (2×) and 125 mg/dl and 135 mg/dl and 103 mg/dl and 141 mg/dl and 118 mg/dl (2×) and 114 mg/dl
- Fasted plasma insulin (Day 7, 10mpk, individual animals, 10 mg/kg): 405.2 pg/mL and 91.1 pg/mL and 88.1 pg/mL and 159.3 pg/mL and 284.1 pg/mL and 97.1 pg/mL and 80.9 pg/mL and 605.6 pg/mL and 106.3 pg/mL
- Fasted plasma insulin (Day 7, 30mpk, individual animals, 30 mg/kg): 199.5 pg/mL and 58.7 pg/mL and 102.1 pg/mL and 88.8 pg/mL and 104.2 pg/mL and 182.8 pg/mL and 66.3 pg/mL and 259.0 pg/mL and 51.6 pg/mL
- Fasted plasma insulin (Day 14, 10mpk, individual animals, 10 mg/kg): 66.8 pg/mL and 405.9 pg/mL and 135.1 pg/mL and 49.4 pg/mL and 1589.0 pg/mL and 353.3 pg/mL and 247.1 pg/mL and 127.3 pg/mL and 158.9 pg/mL
- Fasted plasma insulin (Day 14, 30mpk, individual animals, 30 mg/kg): 80.8 pg/mL and 3482.1 pg/mL and 77.9 pg/mL and 794.5 pg/mL and 102.8 pg/mL and 430.5 pg/mL and 972.9 pg/mL and 1169.4 pg/mL and 1639.6 pg/mL
- NEFA (mEq/L) (MK2305 @ 10, 20 days of treatment, individual GK rats): 0.23 mEq/L and 0.33 mEq/L and 0.26 mEq/L and 0.5 mEq/L and 0.19 mEq/L and 0.37 mEq/L and 0.32 mEq/L
- NEFA (mEq/L) (MK2305 @ 30, 20 days of treatment, individual GK rats): 0.21 mEq/L and 0.43 mEq/L and 0.24 mEq/L and 0.45 mEq/L and 0.39 mEq/L and 0.38 mEq/L and 0.22 mEq/L and 0.34 mEq/L
- Morning (fed) Blood Glucose (MK-2305 10 mpk in feed, Day 0 (start of study), individual GK rats, 10 mg/kg): 184 mg/dL and 260 mg/dL and 210 mg/dL and 227 mg/dL and 237 mg/dL and 193 mg/dL and 200 mg/dL and 191 mg/dL and 179 mg/dL
- Morning (fed) Blood Glucose (MK-2305 10 mpk in feed, Day 1, individual GK rats, 10 mg/kg): 170 mg/dL and 247 mg/dL and 203 mg/dL and 186 mg/dL and 231 mg/dL and 179 mg/dL and 277 mg/dL and 199 mg/dL and 162 mg/dL

Source: article PMC5441580, “GPR40 partial agonist MK-2305 lower fasting glucose in the Goto Kakizaki rat via suppression of endogenous glucose production” (PLoS ONE, 2017)
